Measured values published in patent US11000033B2, “Ketone or oxime compound, and herbicide” (NISSAN CHEMICAL CORPORATION, priority 2014, dated 2021).

Columns and labels:
Type in all cases: in vivo
rice = test: Test Example 4: effect on crop by soil treatment (symbol b); details: application herbicide amount 320 g/ha
Outline: (§1)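 Plants are raised in a greenhouse (25° C. to 30° C.) from spot-sown seed, which sits under about 1.5 cm of sterilized diluvial soil in a box shared with weed species.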

beet = test: Test Example 5: effect on crop by foliage application, plastic box (symbol f); details: 320 g/ha, 3 weeks after application
Outline: (§2)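 Crop seed is sown alongside grass and broadleaf weed species in spots in sterilized diluvial soil, then covered to a depth of about 1.5 cm. Plants grow in a greenhouse kept at 25° C. to 30° C.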

wheat [1] = test: Test Example 5: effect on crop by foliage application, plastic box (symbol e); details: 320 g/ha, 3 weeks after application
Outline: as §2

[2] = test system: directly sowed rice plant; test: Test Example 3: effect on crop by foliage application, Wagner pot (symbol b); details: application herbicide amount 320 g/ha, Table 24
Outline: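 Alluvial soil in a 1/10000-are Wagner pot was flooded to a water depth of 0.1–0.5 cm. Echinochloa crus-galli var. crus-galli, Leptochloa chinensis, Cyperus difformis and rice were sown into it and grown in a greenhouse at 25–30 °C.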

Apera spica-venti = test: Test Example 4: herbicidal effect by soil treatment (symbol L); details: application herbicide amount 320 g/ha
Outline: (§3)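 Seeds were sown in sterilized diluvial soil, covered with about 1.5 cm of soil, and the soil surface was sprayed with a water-diluted emulsion of the compound at a predetermined rate. Plants grew in a greenhouse at 25° C. to 30° C.; effects were scored visually 3 weeks after application.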

Amaranthus retroflexus = test: Test Example 4: herbicidal effect by soil treatment (symbol N); details: application herbicide amount 320 g/ha
Outline: as §3

Avena fatua = test: Test Example 4: herbicidal effect by soil treatment (symbol I); details: application herbicide amount 320 g/ha
Outline: as §3

Lolium multiflorum Lam. = test: Test Example 4: herbicidal effect by soil treatment (symbol K); details: application herbicide amount 320 g/ha
Outline: as §3

Abutilon theophrasti = test: Test Example 5: herbicidal effect by foliage application, plastic box (symbol M); details: 320 g/ha, 3 weeks after application
Outline: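 Greenhouse foliar test: seedlings at 14 days, grown 25° C. to 30° C. in sterilized diluvial soil; compound applied as an aqueous dilution of an emulsion; response read 3 weeks after spraying.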

rapeseed [3] = test: Test Example 4: effect on crop by soil treatment (symbol g); details: application herbicide amount 320 g/ha
Outline: as §1

[4] = test system: Echinochloa oryzacola Vasing.; test: Test Example 2: herbicidal activity, application during weed generation in submerged conditions (symbol A); details: Table 23; application herbicide amount 320 g/ha; grade 0-5 by criteria of Test Example 1
Outline: (§4)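 Weeds emerging under flooded conditions were treated with compound formulated as an emulsion and diluted with water to the intended herbicide amount, poured onto the surface of 4 cm standing water. Seeds had been co-sown in alluvial soil; plants grew at 25° C. to 30° C. and were assessed after 3 weeks.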

Scirpus juncoides = test: Test Example 2: herbicidal activity, application during weed generation in submerged conditions (symbol B); details: Table 23; application herbicide amount 320 g/ha; grade 0-5 by criteria of Test Example 1
Outline: as §4

wheat [5] = test: Test Example 4: effect on crop by soil treatment (symbol e); details: application herbicide amount 320 g/ha
Outline: as §1

rice plant = test: Test Example 5: effect on crop by foliage application, plastic box (symbol b); details: 320 g/ha, 3 weeks after application
Outline: as §2

rapeseed [6] = test: Test Example 5: effect on crop by foliage application, plastic box (symbol g); details: 320 g/ha, 3 weeks after application
Outline: as §2

soybean = test: Test Example 4: effect on crop by soil treatment (symbol d); details: application herbicide amount 320 g/ha
Outline: as §1

Row | SMILES | Effect on crop grade, b: directly sowed rice plant (rice) | b (directly sowed rice plant) effect on crop grade [2] | Herbicidal effect grade, L: Apera spica-venti (Apera spica-venti) | Herbicidal effect grade, N: Amaranthus retroflexus (Amaranthus retroflexus) | Herbicidal effect grade, I: Avena fatua (Avena fatua) | Herbicidal effect grade, K: Lolium multiflorum Lam. (Lolium multiflorum Lam.) | Effect on crop grade, g: rapeseed (rapeseed [3]) | Herbicidal effect grade, A: Echinochloa oryzacola Vasing. [4] | Herbicidal effect grade, B: Scirpus juncoides (Scirpus juncoides) | Effect on crop grade, e: wheat (wheat [5]) | Effect on crop grade, d: soybean (soybean) | also measured
1 | COc1cc(Br)cc(C)c1C1=C(O)CC(CC(C)=O)C1=O (centres unmarked) [7-027, 2-(4-bromo-2-methoxy-6-methylphenyl)-3-hydroxy-5-(2-oxopropyl)cyclopent-2-enone] | 5 (Herbicidal ratio of 90% or more (almost completely withered)) | 5 (Herbicidal ratio of 90% or more (almost completely withered)) | 5 (Herbicidal ratio of 90% or more (almost completely withered)) | 0 (Herbicidal ratio of 5% or lower (almost no effect)) | 0 (Herbicidal ratio of 5% or lower (almost no effect)) | 5 (Herbicidal ratio of 90% or more (almost completely withered)) | 0 (Herbicidal ratio of 5% or lower (almost no effect)) | 3 (Herbicidal ratio of 40% or higher and lower than 70%) | 0 (Herbicidal ratio of 5% or lower (almost no effect)) | 2 (Herbicidal ratio of 20% or higher and lower than 40%) | 0 (Herbicidal ratio of 5% or lower (almost no effect)) | f: beet, effect on crop (criteria of Test Example 1) (beet): 0 (Herbicidal ratio of 5% or lower (almost no effect)); e: wheat, effect on crop (criteria of Test Example 1) (wheat [1]): 0 (Herbicidal ratio of 5% or lower (almost no effect)); M: Abutilon theophrasti, herbicidal effect (criteria of Test Example 1) (Abutilon theophrasti): 0 (Herbicidal ratio of 5% or lower (almost no effect)); b: directly sowed rice plant, effect on crop (criteria of Test Example 1) (rice plant): 3 (Herbicidal ratio of 40% or higher and lower than 70%); g: rapeseed, effect on crop (criteria of Test Example 1) (rapeseed [6]): 2 (Herbicidal ratio of 20% or higher and lower than 40%)
2 | CC(=O)C1CC(O)=C(c2c(C)cc(C)cc2C)C1=O (centres unmarked) [8-001] | 0 (Herbicidal ratio of 5% or lower (almost no effect)) | 0 (Herbicidal ratio of 5% or lower (almost no effect)) | 0 (Herbicidal ratio of 5% or lower (almost no effect)) | 0 (Herbicidal ratio of 5% or lower (almost no effect)) | 0 (Herbicidal ratio of 5% or lower (almost no effect)) | 0 (Herbicidal ratio of 5% or lower (almost no effect)) | 0 (Herbicidal ratio of 5% or lower (almost no effect)) | 0 (Herbicidal ratio of 5% or lower (almost no effect)) | 0 (Herbicidal ratio of 5% or lower (almost no effect)) | 0 (Herbicidal ratio of 5% or lower (almost no effect)) | 0 (Herbicidal ratio of 5% or lower (almost no effect)) | f: beet, effect on crop grade (beet): 0 (Herbicidal ratio of 5% or lower (almost no effect)); e: wheat, effect on crop grade (wheat [1]): 0 (Herbicidal ratio of 5% or lower (almost no effect)); M: Abutilon theophrasti, herbicidal effect grade (Abutilon theophrasti): 0 (Herbicidal ratio of 5% or lower (almost no effect)); b: directly sowed rice plant, effect on crop grade (rice plant): 2 (Herbicidal ratio of 20% or higher and lower than 40%); g: rapeseed, effect on crop grade (rapeseed [6]): 0 (Herbicidal ratio of 5% or lower (almost no effect))
